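Protocol summary: plate cells (96-well), add compound at 5 concentrations, incubate 48 h, interpolate endpoints linearly. Abbreviation: GI50, concentration required for 50% inhibition of growth.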 Activity calls are given as the source filed them. Cut-off read from the data, not from the text of the source: active = GI50 up to about 1.1 µM and inactive = higher.
Experiments:
Test in all cases: growth of human tumour cells (NCI), 48 h
[1] = test system: RXF 393
[2] = test system: COLO 205
[3] = test system: SNB-75
[4] = test system: NCI/ADR-RES
[5] = test system: Hs-578T
[6] = test system: HCT-15
[7] = test system: OVCAR-5
[8] = test system: A549
[9] = test system: TK-10
[10] = test system: UACC-257
[11] = test system: T47D
[12] = test system: SR
[13] = test system: LOX IMVI
[14] = test system: SF-268
[15] = test system: HCC 2998
[16] = test system: U-251
[17] = test system: Malme-3M
[18] = test system: OVCAR-3
[19] = test system: HT-29
[20] = test system: A498

Compound | GI50 [1] | GI50 [2] | GI50 [3] | GI50 [4] | GI50 [5] | GI50 [6] | GI50 [7] | GI50 [8] | GI50 [9] | GI50 [10] | GI50 [11] | GI50 [12] | GI50 [13] | GI50 [14] | GI50 [15] | GI50 [16] | GI50 [17] | GI50 [18] | GI50 [19] | GI50 [20]
CCOC(=O)c1nc2ccc(C(F)(F)F)cc2nc1NCc1ccc(F)cc1 | 37.2 µM (inactive) | 27 µM (inactive) | 91.4 µM (inactive) | 24 µM (inactive) | 21.5 µM (inactive) | 29.4 µM | 64.3 µM (inactive) | 42.8 µM (inactive) | 27.9 µM (inactive) | 27.5 µM (inactive) | 17.1 µM (inactive) | 37.8 µM (inactive) | 26.1 µM (inactive) | 11.5 µM (inactive) | 24.8 µM (inactive) | 35.7 µM (inactive) | 35.5 µM (inactive) | 50.2 µM (inactive) | 35.4 µM (inactive) | –
C#CCCOC(=O)c1ccccc1OC(C)=O | > 100 µM (inactive) | > 100 µM (inactive) | > 100 µM (inactive) | > 100 µM (inactive) | > 100 µM (inactive) | > 100 µM | > 100 µM (inactive) | – | > 100 µM (inactive) | > 100 µM (inactive) | > 100 µM (inactive) | > 100 µM (inactive) | > 100 µM (inactive) | > 100 µM (inactive) | – | > 100 µM (inactive) | – | > 100 µM (inactive) | – | > 100 µM (inactive)
CN1C(=O)C(O)C[C@@H]1c1ccccc1 (stereo not given in full) | > 100 µM (inactive) | > 100 µM (inactive) | > 100 µM (inactive) | > 100 µM (inactive) | > 100 µM (inactive) | > 100 µM | > 100 µM (inactive) | > 100 µM (inactive) | > 100 µM (inactive) | > 100 µM (inactive) | > 100 µM (inactive) | > 100 µM (inactive) | > 100 µM (inactive) | > 100 µM (inactive) | > 100 µM (inactive) | > 100 µM (inactive) | > 100 µM (inactive) | > 100 µM (inactive) | > 100 µM (inactive) | –
c1ccc(NNC2=NCCN2)cc1 | – | > 100 µM (inactive) | > 100 µM (inactive) | > 100 µM (inactive) | > 100 µM (inactive) | > 100 µM | > 100 µM (inactive) | > 100 µM (inactive) | > 100 µM (inactive) | > 100 µM (inactive) | > 100 µM (inactive) | > 100 µM (inactive) | > 100 µM (inactive) | > 100 µM (inactive) | – | > 100 µM (inactive) | – | > 100 µM (inactive) | > 100 µM (inactive) | > 100 µM (inactive)
O=C(CCCn1ccnc1[N+](=O)[O-])NCCn1ccnc1[N+](=O)[O-] | – | > 100 µM (inactive) | > 100 µM (inactive) | > 100 µM (inactive) | > 100 µM (inactive) | > 100 µM | > 100 µM (inactive) | > 100 µM (inactive) | > 100 µM (inactive) | > 100 µM (inactive) | > 100 µM (inactive) | > 100 µM (inactive) | > 100 µM (inactive) | > 100 µM (inactive) | > 100 µM (inactive) | > 100 µM (inactive) | > 100 µM (inactive) | > 100 µM (inactive) | > 100 µM (inactive) | –
COc1cc(-c2ccccc2N)c2cccnc2c1OC | 15.2 µM (inactive) | 6.38 µM (inactive) | – | 10.4 µM (inactive) | 3.05 µM (inactive) | 3.58 µM | – | 3.69 µM (inactive) | 10.1 µM (inactive) | 10.1 µM (inactive) | 4.04 µM (inactive) | 1.67 µM (inactive) | 3.4 µM (inactive) | 3.1 µM (inactive) | – | 4.21 µM (inactive) | 14.9 µM (inactive) | 4.38 µM (inactive) | 0.74 µM (active) | 14.1 µM (inactive)
Cc1c(O)c(=O)ccn1CCc1ccc(O)cc1 | – | 31.5 µM (inactive) | – | 8.71 µM (inactive) | 24.3 µM (inactive) | 4.82 µM | 30 µM (inactive) | 32.9 µM (inactive) | 15.8 µM (inactive) | 25.5 µM (inactive) | 45.6 µM (inactive) | 34.6 µM (inactive) | 20.5 µM (inactive) | 9.51 µM (inactive) | – | 13.9 µM (inactive) | 22.5 µM (inactive) | 11.2 µM (inactive) | 20.4 µM (inactive) | –
C[C@H]1CCCCC[C@@H]2CC(=O)CC2C(=O)CCC(=O)O1 (stereo not given in full) | > 100 µM (inactive) | > 100 µM (inactive) | 9.02 µM (inactive) | 52.6 µM (inactive) | > 100 µM (inactive) | > 100 µM | > 100 µM (inactive) | > 100 µM (inactive) | > 100 µM (inactive) | > 100 µM (inactive) | > 100 µM (inactive) | > 100 µM (inactive) | – | > 100 µM (inactive) | > 100 µM (inactive) | > 100 µM (inactive) | > 100 µM (inactive) | > 100 µM (inactive) | > 100 µM (inactive) | –
